Experimental data published in article PMC7388970 (The Cell Surface, 2020).
Converted amounts (≈) assume the structure as drawn.

Each molecule was assayed on mycolic acid biosynthesis in M. bovis BCG (assay: not given). Settings: not given.
Format: cell-based, Mycobacterium bovis BCG

SMILES | FAMEs | production of α- and k-MAMEs
COc1ccc(C=CC(=O)c2ccccc2)cc1OC [Compound 1a, 3-(3,4-Dimethoxyphenyl)-1-phenylprop-2-en-1-one] | accumulation of FAMEs in a dose-dependent manner | dose-dependent decrease

Each molecule was assayed on J774 cells (assay: MTT assay for cytotoxicity). Settings: Mus musculus, J774, 24 h, read-out: J-774 (IC50).
Format: cell-based

SMILES | IC50 [µg/mL]
COc1ccc(C=CC(=O)c2ccccc2)cc1OC [Compound 1a, 3-(3,4-Dimethoxyphenyl)-1-phenylprop-2-en-1-one] | 50 (≈ 186 µM)
COc1ccc(C=CC(=O)c2cccc(Br)c2)cc1OC [Compound 1b, 1-(3-Bromophenyl)-3-(3,4-dimethoxyphenyl)prop-2-en-1-one] | 25 (≈ 72 µM)
COc1ccc(C=CC(=O)c2ccccc2Br)cc1OC [Compound 1c, 1-(2-Bromophenyl)-3-(3,4-dimethoxyphenyl)prop-2-en-1-one] | 25 (≈ 72 µM)
COc1ccc(C=CC(=O)c2ccc(Br)cc2)cc1OC [Compound 1d, 1-(4-Bromophenyl)-3-(3,4-dimethoxyphenyl)prop-2-en-1-one] | 25 (≈ 72 µM)
COc1ccc(C=CC(=O)c2cccc(Cl)c2)cc1OC [Compound 1e, 1-(3-Chlorophenyl)-3-(3,4-dimethoxyphenyl)prop-2-en-1-one] | 12.5 (≈ 41.3 µM)
COc1ccc(C=CC(=O)c2ccccc2Cl)cc1OC [Compound 1f, 1-(2-Chlorophenyl)-3-(3,4-dimethoxyphenyl)prop-2-en-1-one] | 12.5 (≈ 41.3 µM)
COc1ccc(C=CC(=O)c2ccc(Cl)cc2)cc1OC [Compound 1g, 1-(4-Chlorophenyl)-3-(3,4-dimethoxyphenyl)prop-2-en-1-one] | 12.5 (≈ 41.3 µM)
COc1ccc(C=CC(=O)c2ccc(C)cc2)cc1OC [Compound 1j, 3-(3,4-Dimethoxyphenyl)-1-(p-tolyl)prop-2-en-1-one] | 25 (≈ 88.5 µM)
COc1ccc(C=CC(=O)c2ccc(-c3ccccc3)cc2)cc1OC [Compound 1k, 1-([1,1'-Biphenyl]-4-yl)-3-(3,4-dimethoxyphenyl)prop-2-en-1-one] | 25 (≈ 72.6 µM)
COc1ccc(C=CC(=O)c2ccccc2C)cc1OC [Compound 1m, 3-(3,4-Dimethoxyphenyl)-1-(o-tolyl)prop-2-en-1-one] | 25 (≈ 88.5 µM)
COc1ccc(C=CC(=O)c2ccc([N+](=O)[O-])cc2)cc1OC [Compound 1n, 3-(3,4-Dimethoxyphenyl)-1-(4-nitrophenyl)prop-2-en-1-one] | 50 (≈ 160 µM)

What follows are molecules tested on Mycobacterium bovis BCG cells (assay: not given). Settings: not given.
Format: cell-based

SMILES | proportion of cells showing morphological changes [%]
COc1ccc(C=CC(=O)c2ccccc2)cc1OC [Compound 1a, 3-(3,4-Dimethoxyphenyl)-1-phenylprop-2-en-1-one] | 76
